The values that follow come from ChEMBL document CHEMBL4373629, “Dual inhibitors of LSD1 and spermine oxidase” (Medchemcomm, 2019).

Structures are written as SMILES. Active and inactive are the calls of the source. No cut-off for these calls is given here.

Data set [1] concerns the target T1, Spermine oxidase (Homo sapiens, UniProt Q9NWM0). The data set can be described thus: Inhibition of SMOX (unknown origin) assessed as decrease in spermidine formation using spermine as substrate treated with compound 2 mins prior to substrate addition followed by further incubation for 1 hr by HPLC analysis.
The target in data set [2] is Peroxisomal N(1)-acetyl-spermine/spermidine oxidase (Homo sapiens, UniProt Q6QHF9). The data set can be described thus: Inhibition of PAOX (unknown origin) assessed as decrease in spermidine formation using N-acetylspermine as substrate treated with compound 2 mins prior to substrate addition followed by further incubation for 1 hr by HPLC analysis.
Peroxisomal N(1)-acetyl-spermine/spermidine oxidase, sequence (Q6QHF9 whole entry): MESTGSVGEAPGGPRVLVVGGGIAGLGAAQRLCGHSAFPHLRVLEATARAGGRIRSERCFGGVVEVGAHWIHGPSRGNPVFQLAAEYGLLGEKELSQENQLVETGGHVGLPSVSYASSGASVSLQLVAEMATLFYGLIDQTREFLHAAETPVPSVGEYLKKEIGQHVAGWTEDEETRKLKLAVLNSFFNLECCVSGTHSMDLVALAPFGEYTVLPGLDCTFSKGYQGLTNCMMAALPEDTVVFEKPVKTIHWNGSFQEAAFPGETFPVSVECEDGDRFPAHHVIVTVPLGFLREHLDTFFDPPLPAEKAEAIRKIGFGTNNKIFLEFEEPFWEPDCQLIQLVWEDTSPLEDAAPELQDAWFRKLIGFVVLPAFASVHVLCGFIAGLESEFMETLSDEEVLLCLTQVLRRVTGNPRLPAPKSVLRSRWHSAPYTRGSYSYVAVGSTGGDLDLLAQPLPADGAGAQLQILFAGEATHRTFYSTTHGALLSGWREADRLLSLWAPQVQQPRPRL
For data set [3], the target named is T1, Spermine oxidase. The data set can be described thus: Inhibition of SMOX (unknown origin) assessed as decrease in spermidine formation using spermine as substrate at 10 uM treated with compound 2 mins prior to substrate addition followed by further incubation for 1 hr by HPLC analysis relative to control.
Data set [4] addresses T2, Amine oxidase [flavin-containing] A (Homo sapiens, UniProt P21397).
T2 sequence (P21397 whole entry): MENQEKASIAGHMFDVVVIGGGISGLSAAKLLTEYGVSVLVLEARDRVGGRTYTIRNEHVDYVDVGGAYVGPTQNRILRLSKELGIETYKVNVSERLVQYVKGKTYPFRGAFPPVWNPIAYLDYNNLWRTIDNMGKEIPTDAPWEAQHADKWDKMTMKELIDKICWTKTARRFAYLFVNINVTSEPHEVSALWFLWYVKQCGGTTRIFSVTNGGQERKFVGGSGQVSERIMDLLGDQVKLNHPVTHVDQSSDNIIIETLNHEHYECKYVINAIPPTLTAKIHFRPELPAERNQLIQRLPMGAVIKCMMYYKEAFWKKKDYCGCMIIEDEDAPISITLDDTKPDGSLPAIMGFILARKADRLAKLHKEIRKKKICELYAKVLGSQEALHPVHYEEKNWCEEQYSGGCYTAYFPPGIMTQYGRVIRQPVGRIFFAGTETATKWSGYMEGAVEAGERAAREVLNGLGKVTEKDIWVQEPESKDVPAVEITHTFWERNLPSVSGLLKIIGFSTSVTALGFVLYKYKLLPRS
The data set can be described thus: Inhibition of MAOA (unknown origin) using luminogenic substrate incubated for 1 hr by luminescence based assay.

Data set [5] has as its target T3, MAOB (amine oxidase [flavin-containing] B) (Homo sapiens, UniProt P27338).
T3 sequence (P27338 whole entry): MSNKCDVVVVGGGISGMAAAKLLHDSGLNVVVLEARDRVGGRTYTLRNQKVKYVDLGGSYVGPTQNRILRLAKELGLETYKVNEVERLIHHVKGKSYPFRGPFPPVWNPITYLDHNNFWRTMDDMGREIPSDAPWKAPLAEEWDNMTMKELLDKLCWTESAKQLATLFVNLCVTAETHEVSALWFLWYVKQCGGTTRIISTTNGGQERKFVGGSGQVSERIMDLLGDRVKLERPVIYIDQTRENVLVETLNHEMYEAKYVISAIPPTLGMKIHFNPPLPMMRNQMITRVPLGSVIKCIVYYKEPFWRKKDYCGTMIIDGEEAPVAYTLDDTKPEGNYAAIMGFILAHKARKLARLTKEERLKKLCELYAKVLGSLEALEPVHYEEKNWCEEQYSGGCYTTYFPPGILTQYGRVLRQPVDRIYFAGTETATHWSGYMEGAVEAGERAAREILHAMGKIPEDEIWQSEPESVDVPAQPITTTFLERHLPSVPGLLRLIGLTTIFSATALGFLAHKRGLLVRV
The data set can be described thus: Inhibition of MAOB (unknown origin) using luminogenic substrate at 10 uM incubated for 1 hr by luminescence based assay relative to control. As to conditions: MAOB enzyme (unknown origin), probe luminogenic substrate.

A further data set has as its system RAW264.7. Nature of the data set: Inhibition of reactive oxygen species formation in mouse RAW264.7 cells infected with Helicobacter pylori. It is filed as functional, cell-based.
The target of data set [6] is T4, MAOA (amine oxidase [flavin-containing] A) (Homo sapiens, UniProt P21397).
T4 sequence (P21397 whole entry): T2 sequence (P21397 whole entry)
Nature of the data set: Inhibition of MAOA (unknown origin) using luminogenic substrate at 10 uM incubated for 1 hr by luminescence based assay relative to control. As to conditions: MAOA enzyme (unknown origin), probe luminogenic substrate.

The target in data set [7] is T5, Amine oxidase [flavin-containing] B (Homo sapiens, UniProt P27338).
T5 sequence (P27338 whole entry): T3 sequence (P27338 whole entry)
Nature of the data set: Inhibition of MAOB (unknown origin) using luminogenic substrate incubated for 1 hr by luminescence based assay.

The nature of another data set: cells. Particulars: Homo sapiens, MIA PaCa-2, 72 h.
Data set [8] deals with BXPC-3. The data set can be described thus: cells. As to conditions: Homo sapiens, BXPC-3, 72 h.
Description: Antiproliferative activity against human BxPC3 cells assessed as reduction in cell growth incubated for 72 hrs by MTS assay
The target in a further data set is LSD1/CoREST complex (Homo sapiens, UniProt O60341). The data set can be described thus: Inhibition of recombinant LSD1/CoREST (unknown origin) incubated for 30 mins to 4 hrs by fluorescence based assay. It is filed as protein-complex assay.
Data set [9] relates to BXPC-3. Nature of the data set: Antiproliferative activity against human BxPC3 cells assessed as reduction in cell growth at 10 to 100 uM incubated for 72 hrs by MTS assay relative to control. It is filed as functional.
Data set [10] concerns the target T1, Spermine oxidase. The data set can be described thus: Potency index, ratio of MDL72527 IC50 to compound IC50 for SMOX (unknown origin) using spermine as substrate treated with compound 2 mins prior to substrate addition followed by further incubation for 1 hr by HPLC analysis.

T1 sequence (Q9NWM0 whole entry): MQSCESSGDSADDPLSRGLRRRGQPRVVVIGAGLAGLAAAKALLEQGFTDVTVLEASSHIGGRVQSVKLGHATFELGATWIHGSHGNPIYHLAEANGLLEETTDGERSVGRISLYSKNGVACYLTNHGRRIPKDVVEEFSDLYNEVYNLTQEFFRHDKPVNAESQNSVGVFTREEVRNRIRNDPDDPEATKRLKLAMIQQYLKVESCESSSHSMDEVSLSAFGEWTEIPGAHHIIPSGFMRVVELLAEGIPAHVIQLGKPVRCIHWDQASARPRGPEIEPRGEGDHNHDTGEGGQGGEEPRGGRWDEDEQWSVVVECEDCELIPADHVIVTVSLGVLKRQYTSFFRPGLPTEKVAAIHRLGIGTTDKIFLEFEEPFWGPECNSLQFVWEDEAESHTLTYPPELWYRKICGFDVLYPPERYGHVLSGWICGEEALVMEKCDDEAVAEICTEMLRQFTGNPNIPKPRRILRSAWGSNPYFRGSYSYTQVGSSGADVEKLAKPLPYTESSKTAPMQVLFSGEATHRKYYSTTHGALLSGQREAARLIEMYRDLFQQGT

For `CSc1ccc(Oc2ccccc2CNc2nc(N)n[nH]2)cc1`, the half-maximal inhibitory concentration (IC50) (commonly the midpoint of a concentration-inhibition curve) at Spermine oxidase [1] was above 200 µM; in data set [2] it was above 200 µM; in [4], 38.4 µM. The inhibition (as a rule, the relative decrease from the control value, in per cent) at Spermine oxidase [3] turned out to be 0%. The same compound had an inhibition at 1 h, 10 µM in data set [5] of 31.7%.

Regarding `Nc1nnc(NCc2c(Cl)cccc2Oc2ccccc2)[nH]1`, the half-inhibitory concentration (IC50) on Spermine oxidase [1] was 178 µM; in data set [7] it was above 200 µM; in data set [4], above 200 µM; in the data set “cells” it was 2.66 µM. Further, in the data set on RAW264.7, the inhibition entry was “Active”. Also, the inhibition at 1 h, 10 µM in data set [6] and in data set [5] was 0% in each case. In addition, on Spermine oxidase [3], the inhibition is 28%.

Take `Nc1n[nH]c(NCc2ccccc2Oc2ccc(F)cc2)n1`: the results for the IC50 (on Spermine oxidase [1]; in [2]; in [4]) were above 200 µM, above 200 µM and 89.3 µM, respectively. Moreover, the inhibition on Spermine oxidase [3] is 0%. The inhibition at 1 h, 10 µM in [5] is 40.7%.

Take `CC(C)(C)c1ccc(Oc2ccccc2CNc2nc(N)n[nH]2)cc1`: the figures for the IC50 (on Spermine oxidase [1]; in data set [2]; in data set [4]) were above 200 µM, above 200 µM and 61.5 µM, respectively. On Spermine oxidase [3], the inhibition is 0%. The inhibition at 1 h, 10 µM in data set [5] turned out to be 32.3%.

As to `Nc1n[nH]c(NCc2c(Cl)cccc2Oc2cccc3ccccc23)n1`, the IC50 in the data set with BXPC-3 [8] was above 100 µM; at Spermine oxidase [1], 148 µM; at LSD1/CoREST complex, 190 to 230 nM; in data set [7], above 200 µM; in data set [4] it was above 200 µM; in “cells” it was 30 to 200 µM. Besides, the results for the inhibition at 1 h, 10 µM in data set [6] and in data set [5] were 0% and 7.12%, respectively. Moreover, at Spermine oxidase [3], the inhibition is 19%.

On to `Cc1cc(C)cc(Oc2ccccc2CNc2nc(N)n[nH]2)c1`, for which the IC50 at Spermine oxidase [1] is above 200 µM; in data set [2], above 200 µM; in data set [4], 91.4 µM. Besides, the inhibition at Spermine oxidase [3] was determined as 0%. This compound gave an inhibition at 1 h, 10 µM in [5] of 83.4%.

For the compound `COc1cc(OC)cc(Oc2ccccc2CNc2nc(N)n[nH]2)c1`, the half-maximal inhibitory concentration (IC50) (at Spermine oxidase [1]; in data set [2]; in data set [4]) was above 200 µM throughout. Moreover, the inhibition at 1 h, 10 µM in [6] worked out at 0%; in [5], 17.1%. The inhibition on Spermine oxidase [3] amounted to 0%.

On to `Cc1ccc(C(C)C)c(Oc2ccccc2CNc2nc(N)n[nH]2)c1`, for which the IC50 at Spermine oxidase [1] is above 200 µM; in data set [2] it was above 200 µM; in [4], 55.5 µM. For the same compound, the inhibition at Spermine oxidase [3] turned out to be 13.9%. The inhibition at 1 h, 10 µM in data set [5] was found to be 49.7%.

Consider `Nc1ccn([C@@H]2O[C@H](CO)[C@@H](O)C2(F)F)c(=O)n1` [GEMCITABINE], for which the IC50 in the data set on BXPC-3 [8] was determined as 5.71 µM; in the data set “cells”, 1.86 µM. The “inhibition (INH)” value in the data set with BXPC-3 [9] turned out to be 30%.

Consider `Nc1n[nH]c(NCc2ccccc2Oc2ccc(-c3ccccc3)cc2)n1`, for which the IC50 in the data set with BXPC-3 [8] is 61.5 µM; at Spermine oxidase [1] it was 25.7 µM; in data set [2] it was above 200 µM; in data set [4], 50 µM; in “cells”, 30 to 200 µM. At Spermine oxidase [3], the inhibition is 25.7%. Besides, on Spermine oxidase [10], the Ratio IC50 amounted to 3.5. Moreover, in [5], the inhibition at 1 h, 10 µM was 26.4%.

For `Cc1cccc(Oc2ccccc2CNc2nc(N)n[nH]2)c1C`, the half-maximal inhibitory concentration (IC50) (on Spermine oxidase [1]; in data set [2]; in [4]) was above 200 µM in each case. Further, the inhibition at 1 h, 10 µM turned out to be 0% in data set [6] and 68.6% in [5]. The inhibition at Spermine oxidase [3] turned out to be 0%.

As for `Nc1n[nH]c(NCc2ccccc2Oc2ccc3ccccc3c2)n1`, the IC50 on Spermine oxidase [1] was above 200 µM; in [2], above 200 µM; in data set [4], 79.2 µM. For the same compound, on Spermine oxidase [3], the inhibition came out at 0%. In addition, in data set [5], the inhibition at 1 h, 10 µM worked out at 81.6%.

With `Nc1n[nH]c(NCc2c(Cl)cccc2Oc2ccc3ccccc3c2)n1`, the IC50 on Spermine oxidase [1] is 163 µM; in [7], above 200 µM; in data set [4] it was above 200 µM. Also, the inhibition at 1 h, 10 µM in [6] and in data set [5] was 0% each time. At Spermine oxidase [3], the inhibition came to 23.6%.

With `C=C=CCNCCCCNCC=C=C`, the IC50 is 89.7 µM at Spermine oxidase [1], above 100000 nM on LSD1/CoREST complex, above 200 µM in data set [7] and above 200 µM in [4]. The inhibition at 1 h, 10 µM in [6] and in data set [5] was 0% throughout. Also, the inhibition on Spermine oxidase [3] was determined as 4.8%.

As to `Nc1n[nH]c(NCc2ccccc2Oc2ccccc2)n1`, the IC50 was above 200 µM at Spermine oxidase [1], above 200 µM in [2] and 50.2 µM in data set [4]. The inhibition on Spermine oxidase [3] is 0%. Moreover, the inhibition at 1 h, 10 µM in data set [5] came out at 18.8%.

With `Nc1n[nH]c(NCc2ccccc2Oc2ccc(Br)cc2C(F)(F)F)n1`, the IC50 with BXPC-3 [8] is above 100 µM; on Spermine oxidase [1], 121 µM; in data set [2], above 200 µM; in data set [4], 3 µM; in “cells”, 30 to 200 µM. Further, the inhibition at Spermine oxidase [3] came to 0%. The same compound came in with an inhibition at 1 h, 10 µM in data set [5] of 90.1%.

Take `N[C@@H]1C[C@H]1c1ccccc1.N[C@H]1C[C@@H]1c1ccccc1`: the inhibition at Spermine oxidase [3] turned out to be 0%.
